# Measured values from patent publication US7452683B2, “Caspase 9 activation and uses therefor” (Wyeth, priority 2002, dated 2008).
# Counter-ions that a name gives are not always drawn.
# Key:
# Caspase 3 = target: T1, Caspase 3 (Homo sapiens, UniProt P42574); assay: Caspase 3 cleavage of Ac-DEVD-Afc in ammonium sulfate at various concentrations; conditions: 25 uM Ac-DEVD-Afc
# T1 sequence (P42574 29-175 limits assumed): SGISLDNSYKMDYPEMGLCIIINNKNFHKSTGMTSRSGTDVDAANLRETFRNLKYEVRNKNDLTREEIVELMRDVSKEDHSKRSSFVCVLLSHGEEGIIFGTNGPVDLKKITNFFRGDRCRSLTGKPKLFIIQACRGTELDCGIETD
# T1 sequence (P42574 176-277 limits assumed): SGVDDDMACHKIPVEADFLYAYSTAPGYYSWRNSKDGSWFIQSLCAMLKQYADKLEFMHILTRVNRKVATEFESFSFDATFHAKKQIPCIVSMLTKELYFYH
# Method: (§1) The control buffer used to carry out specificity reactions is as follows: 20 mM PIPES pH 7.2, 1 mM EDTA, 0.1% CHAPS, 10% sucrose, 10 mM DTT. Various N-acetyl-tetrapeptide-7-amino-trifluoromethylcoumarin substrates at 100 uM were assayed with the different commercially available caspases. 2.5 mM stock substrate concentrations were prepared in DMSO and subsequently diluted to 200 uM with control buffer.
# (§2) 300 U stock solutions of the enzymes in interest were prepared in the control buffer listed above. The assay was carried out as follows: 96 well black Dynex microfluorometer 1 plate was used. Total Assay volume was 100 ul. 7-amino-trifluoromethyl coumarin (AFC) was excited at 400 nm, and fluorescence emission was monitored at 505 nm kinetically for the duration of 1 hour (h) wherein AFC was cleaved from the peptide.
# (§3) 50 ul of 200 uM stock substrate was added first (final assay concentration 100 uM). 40 ul of the control buffer was then added. The assay was initiated with the addition of 10 ul of the appropriate 300 U caspase stock (30 U in final assay). A linear rate (relative fluorescence U/s) was calculated from the entire duration of the experiment and graphed for each enzyme verses the various substrates tested.
# (§4) The substrates in ammonium sulfate using Caspase 9 was 25 uM Ac-LEHD-Afc (SEQ ID NO: 5) and for Caspase 3 was 25 uM Ac-DEVD-Afc (SEQ ID NO: 1).
# Caspase 7 = target: T2, Caspase 7 (Homo sapiens, UniProt P55210); assay: Caspase 7 activity in ammonium sulfate at various concentrations
# T2 sequence (P55210 24-198 limits assumed): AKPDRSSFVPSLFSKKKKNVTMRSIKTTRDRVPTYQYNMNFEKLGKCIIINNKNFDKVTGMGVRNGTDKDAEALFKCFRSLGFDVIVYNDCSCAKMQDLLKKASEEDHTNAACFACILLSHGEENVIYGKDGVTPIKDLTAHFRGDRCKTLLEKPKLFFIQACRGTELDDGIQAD
# T2 sequence (P55210 207-303 limits assumed): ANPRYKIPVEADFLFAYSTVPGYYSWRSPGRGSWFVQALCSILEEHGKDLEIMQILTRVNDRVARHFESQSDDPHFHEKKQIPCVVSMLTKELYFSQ
# Method: as §1, §2, §3, §4
# Caspase 9 = target: T3, Caspase 9 (Homo sapiens, UniProt P55211); assay: Caspase 9 cleavage of Ac-LEHD-AFC in buffers containing Hofmeister salts; type: biochemical
# T3 construct: purchased
# T3 sequence (P55211 1-315 limits assumed): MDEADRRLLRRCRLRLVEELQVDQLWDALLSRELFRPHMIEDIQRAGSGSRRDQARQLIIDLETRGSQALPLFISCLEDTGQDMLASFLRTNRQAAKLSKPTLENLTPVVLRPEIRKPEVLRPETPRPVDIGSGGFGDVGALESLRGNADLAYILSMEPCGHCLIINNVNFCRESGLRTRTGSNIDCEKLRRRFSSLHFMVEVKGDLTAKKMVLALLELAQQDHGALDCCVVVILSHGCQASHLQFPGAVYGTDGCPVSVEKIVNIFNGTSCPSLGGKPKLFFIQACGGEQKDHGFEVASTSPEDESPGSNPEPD
# T3 sequence (P55211 331-416 limits assumed): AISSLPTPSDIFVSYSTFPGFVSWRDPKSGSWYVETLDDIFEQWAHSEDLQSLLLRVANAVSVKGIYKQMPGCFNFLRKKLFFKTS
# Caspase 1 = target: T4, Caspase 1 (Homo sapiens, UniProt P29466); assay: Caspase 1 activity in ammonium sulfate at various concentrations
# T4 sequence (P29466 120-297 limits assumed): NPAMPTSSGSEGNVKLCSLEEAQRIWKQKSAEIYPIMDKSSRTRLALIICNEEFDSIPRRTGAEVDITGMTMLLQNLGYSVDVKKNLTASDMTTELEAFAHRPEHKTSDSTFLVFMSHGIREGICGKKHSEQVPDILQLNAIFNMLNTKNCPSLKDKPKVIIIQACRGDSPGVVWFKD
# T4 sequence (P29466 317-404 limits assumed): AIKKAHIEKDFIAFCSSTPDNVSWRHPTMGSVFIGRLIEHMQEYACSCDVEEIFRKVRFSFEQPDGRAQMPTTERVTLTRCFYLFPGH
# Method: as §1, §2, §3, §4
# [1] = target: Herpes simplex virus 1 protease (Human herpesvirus 1, UniProt P10210); conditions: 1M Na citrate; cited from earlier work
# Herpes simplex virus 1 protease, sequence (P10210 1-247): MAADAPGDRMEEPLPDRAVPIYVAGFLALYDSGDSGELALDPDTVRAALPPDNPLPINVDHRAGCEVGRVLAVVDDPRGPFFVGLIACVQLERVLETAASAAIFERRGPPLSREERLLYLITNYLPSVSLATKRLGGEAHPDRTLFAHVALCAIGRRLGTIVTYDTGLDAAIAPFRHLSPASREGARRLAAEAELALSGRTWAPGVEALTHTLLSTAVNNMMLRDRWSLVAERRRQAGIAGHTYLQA
structure (smiles),measurement,setting,value
N.N.O=S(=O)(O)O [ammonium sulfate],effect of salt on Caspase 3 activity,Caspase 3,minimal effect
same,effect of salt on Caspase 7 activity,Caspase 7,no effect
same,Caspase 9 activity increase,"Caspase 9; sulfate concentrations from 0 to 1.6 M, 25 uM Ac-LEHD-Afc",1400 fold
same,effect of salt on Caspase 1 activity,Caspase 1,no effect
"O=C(O)CC(O)(CC(=O)O)C(=O)O [citrate, Na citrate]",activity of Caspase 9 relative to activity in 0.8 M bromide,"Caspase 9; 0.8 M salt in control buffer pH 7.2, 100 uM N-Ac-LEHD-Afc, 30 U Caspase 9/well (0.72 uM)","10,000 fold"
same,increase in activity of Herpes simplex virus 1 protease,[1],860 fold
O=P(O)(O)O [sodium phosphate],Caspase 9 activity increase,"Caspase 9; phosphate concentrations from 0 to 1 M, 100 uM Ac-LEHD-Afc",2200 fold
